# Measurements published in patent publication US20210038515A1 (Azurity Pharmaceuticals, Inc., priority 2014, published 2021).
# Structures can show the parent of a compound that is named as a salt.
# Columns and labels:
# C. difficile = experiment: MIC by reference agar dilution method (CLSI M11-A8) of stored vancomycin preparations; assay type: cell-based, Clostridium difficile; conditions: for MIC, average of triplicate: Fresh
# [1] = tested on: Staphylococcus aureus ATCC 29213; experiment: MIC by reference agar dilution method (CLSI M11-A8), quality control strain; assay type: cell-based; conditions: Fresh
# Protocol: The vancomycin hydrochloride solution of the invention and the IV solution were reconstituted to a concentration of 25 mg/ml. […] The MICs were determined by the reference agar dilution method (CLSI M11-A8). All serial two-fold dilutions were prepared on the same day and added to molten agar to prepare plates.
# The in vitro activity was tested for three different preparations of vancomycin freshly reconstituted, and stored at ambient and at refrigerated temperatures. The C. difficile strains were selected to represent the most frequently encountered ribotypes.
# Plates were prepared by adding 1 ml of lysed sheep blood and two mls of the twofold dilutions of the vancomycin preparations to molten agar. Plates were mixed, poured and allowed to harden. Suspensions of the organisms were applied to the plates using a Steers replicating device that delivered approximately 10^5 cfu/spot. Each preparation was tested in triplicate. Plates were incubated at 37° C. for 48 h.
# Plates were examined for growth.
# [2] = Stability of vancomycin hydrochloride powder in bottle (HPLC or cylinder plate analysis); conditions: for μg/mg vancomycin hydrochloride powder: Ex. 1, 10 g powder in HDPE bottle; for % Vancomycin B / % other impurities / % Monodechlorovancomycin: Ex. 1 powder in bottle; for Monodechlorovancomycin / Other Impurities / Vancomycin / Vancomycin B: Ex. 4, 15.38 g powder in bottle
# Protocol: Stability may be assessed by cylinder-plate assay (the cylinder plate assay depends on the diffusion of the antibiotic from a vertical cylinder through a solidified agar layer in a petri dish or plate. The growth of the specific microorganisms inoculated into the agar is prevented in a circular area or zone around the cylinder containing the solution of the antibiotic), HPLC or any other known testing method.
# The stability of vancomycin hydrochloride powder was evaluated. […] At various time points the powder in the bottle was analyzed for vancomycin hydrochloride, vancomycin B, other impurities, and monodechlorovancomycin by HPLC or cylinder plate analysis.
# Vancomycin hydrochloride was further investigated in stability studies. […] At each given time point, vancomycin hydrochloride, vancomycin B, other impurities, and monodechlorovancomycin were assayed by HPLC or total microbiological activity was assessed by cylinder plate analysis.
# [3] = 289 mL solution component + 15.38 g powder, shaken 30 seconds
# [4] = Ex. 4, 3 months accelerated and ambient
smiles,measurement,setting,value
CN[C@H](CC(C)C)C(=O)N[C@H]1C(=O)N[C@@H](CC(N)=O)C(=O)N[C@H]2C(=O)N[C@H]3C(=O)N[C@H](C(=O)N[C@H](C(=O)O)c4cc(O)cc(O)c4-c4cc3ccc4O)[C@H](O)c3ccc(c(Cl)c3)Oc3cc2cc(c3O[C@@H]2O[C@H](CO)[C@@H](O)[C@H](O)[C@H]2O[C@H]2C[C@](C)(N)[C@H](O)[C@H](C)O2)Oc2ccc(cc2Cl)[C@H]1O.Cl [Reference standard],"MIC, average of triplicate",C. difficile; ATCC 7000057 QC (C. difficile),1 µg/mL
same,"MIC, average of triplicate","C. difficile; RMA 24504, ribotype 027",1 µg/mL
same,"MIC, average of triplicate","C. difficile; RMA 24510, ribotype 027",1 µg/mL
same,"MIC, average of triplicate","C. difficile; RMA 24519, ribotype 027",1 µg/mL
same,"MIC, average of triplicate","C. difficile; RMA 24527, ribotype 014",1 µg/mL
same,"MIC, average of triplicate","C. difficile; RMA 24529, ribotype 014",1 µg/mL
same,"MIC, average of triplicate","C. difficile; RMA 24541, ribotype 020",1 µg/mL
same,"MIC, average of triplicate","C. difficile; RMA 24543, ribotype 020",1 µg/mL
same,"MIC, average of triplicate","C. difficile; RMA 24547, ribotype 014",1 µg/mL
same,"MIC, average of triplicate","C. difficile; RMA 24561, ribotype 078",1 µg/mL
same,"MIC, average of triplicate","C. difficile; RMA 24567, ribotype 020",1 µg/mL
same,"MIC, average of triplicate","C. difficile; RMA 24575, ribotype 078",1 µg/mL
same,"MIC, average of triplicate","C. difficile; RMA 24594, ribotype 106",4 µg/mL
same,"MIC, average of triplicate","C. difficile; RMA 24601, ribotype 106",2 µg/mL
same,"MIC, average of triplicate","C. difficile; RMA 24605, ribotype 002",1 µg/mL
same,"MIC, average of triplicate","C. difficile; RMA 24607, ribotype 106",1 µg/mL
same,"MIC, average of triplicate","C. difficile; RMA 24608, ribotype 002",1 µg/mL
same,"MIC, average of triplicate","C. difficile; RMA 24615, ribotype 005",2 µg/mL
same,"MIC, average of triplicate","C. difficile; RMA 24628, ribotype 012",1 µg/mL
same,"MIC, average of triplicate","C. difficile; RMA 24641, ribotype 001/072",1 µg/mL
same,"MIC, average of triplicate","C. difficile; RMA 24643, ribotype 001/072",1 µg/mL
same,"MIC, average of triplicate","C. difficile; RMA 24646, ribotype 001/072",1 µg/mL
same,"MIC, average of triplicate","C. difficile; RMA 24655, ribotype 005",2 µg/mL
same,"MIC, average of triplicate","C. difficile; RMA 24678, ribotype 012",4 µg/mL
same,"MIC, average of triplicate","C. difficile; RMA 24683, ribotype 027",2 µg/mL
same,"MIC, average of triplicate","C. difficile; RMA 24690, ribotype 027",4 µg/mL
same,"Average MIC (geometric mean, all 25 strains)",C. difficile; reference standard powder stock solution stored at −70 C,1.5 µg/mL
same,"MIC, average of triplicate",[1]; ATCC 29213 SA QC (S. aureus),2 µg/mL
same,"vancomycin MIC from triplicate test, best of 3 values",[1]; ATCC 29213 SA QC,2 µg/mL
"CN[C@H](CC(C)C)C(=O)N[C@H]1C(=O)N[C@@H](CC(N)=O)C(=O)N[C@H]2C(=O)NC3C(=O)N[C@H](C(=O)N[C@H](C(=O)O)c4cc(O)cc(O)c4-c4cc3ccc4O)[C@H](O)c3ccc(c(Cl)c3)Oc3cc2cc(c3OC2OC(CO)C(O)C(O)C2OC2CC(C)(N)C(O)C(C)O2)Oc2ccc(cc2Cl)[C@H]1O (stereo partly shown) [vancomycin hydrochloride powder, vancomycin hydrochloride]",μg/mg vancomycin hydrochloride powder,"[2]; 40° C./75% RH, 0 months",1067 µg/mg
same,μg/mg vancomycin hydrochloride powder,"[2]; 40° C./75% RH, 1 month",1076 µg/mg
same,μg/mg vancomycin hydrochloride powder,"[2]; 40° C./75% RH, 2 months",1097 µg/mg
same,μg/mg vancomycin hydrochloride powder,"[2]; 40° C./75% RH, 3 months",1094 µg/mg
same,μg/mg vancomycin hydrochloride powder,"[2]; 40° C./75% RH, 6 months",1137 µg/mg
same,powder in bottle stability,"[2]; Ex. 1, ambient and accelerated conditions (25° C./60% RH and 40°/75% RH)",stable
same,% Vancomycin B,"[2]; 25° C./60% (RH), 0 months",93.03%
same,% other impurities,"[2]; 25° C./60% (RH), 0 months",<5.0% for all other
same,% Vancomycin B,"[2]; 25° C./60% (RH), 3 months",92.19%
same,% other impurities,"[2]; 25° C./60% (RH), 3 months",<5.0% for all other
same,% Vancomycin B,"[2]; 25° C./60% (RH), 6 months",92.04%
same,% other impurities,"[2]; 25° C./60% (RH), 6 months",<5.0% for all other
same,% Vancomycin B,"[2]; 25° C./60% (RH), 9 months",89.34%
same,% other impurities,"[2]; 25° C./60% (RH), 9 months",<5.0% for all other
same,% Vancomycin B,"[2]; 25° C./60% (RH), 12 months",88.85%
same,% other impurities,"[2]; 25° C./60% (RH), 12 months",<5.0% for all other
same,% Vancomycin B,"[2]; 25° C./60% (RH), 18 months",90.8%
same,% other impurities,"[2]; 25° C./60% (RH), 18 months",<5.0% for all other
same,% Vancomycin B,"[2]; 40° C./75% RH, 0 months",93.03%
same,% other impurities,"[2]; 40° C./75% RH, 0 months",<5.0% for all other
same,% Monodechlorovancomycin,"[2]; 40° C./75% RH, 1 month",1.0%
same,% Vancomycin B,"[2]; 40° C./75% RH, 1 month",91.87%
same,% other impurities,"[2]; 40° C./75% RH, 1 month",<5.0% for all other
same,% Monodechlorovancomycin,"[2]; 40° C./75% RH, 2 months",1.3%
same,% Vancomycin B,"[2]; 40° C./75% RH, 2 months",89.14%
same,% other impurities,"[2]; 40° C./75% RH, 2 months",<5.0% for all other
same,% Monodechlorovancomycin,"[2]; 40° C./75% RH, 3 months",1.6%
same,% Vancomycin B,"[2]; 40° C./75% RH, 3 months",88.22%
same,% other impurities,"[2]; 40° C./75% RH, 3 months",<5.0% for all other
same,% Vancomycin B,"[2]; 40° C./75% RH, 6 months",81.84%
same,% other impurities,"[2]; 40° C./75% RH, 6 months",<5.0% for all other
same,Monodechlorovancomycin,"[2]; 25° C./60% RH, 0 months",1.5%
same,Other Impurities,"[2]; 25° C./60% RH, 0 months",<5.0% for
same,Vancomycin,"[2]; 25° C./60% RH, 0 months","1,112 mcg/mg"
same,Vancomycin B,"[2]; 25° C./60% RH, 0 months",94.7%
same,Monodechlorovancomycin,"[2]; 25° C./60% RH, 3 months",1.1%
same,Other Impurities,"[2]; 25° C./60% RH, 3 months",<5.0% for
same,Vancomycin,"[2]; 25° C./60% RH, 3 months","1,070 mcg/mg"
same,Vancomycin B,"[2]; 25° C./60% RH, 3 months",91.8%
same,Monodechlorovancomycin,"[2]; 40° C./60% RH, 0 months",1.5%
same,Other Impurities,"[2]; 40° C./60% RH, 0 months",<5.0% for all
same,Vancomycin,"[2]; 40° C./60% RH, 0 months","1,112 mcg/mg"
same,Vancomycin B,"[2]; 40° C./60% RH, 0 months",94.7%
same,Monodechlorovancomycin,"[2]; 40° C./60% RH, 1 month",1.4%
same,Other Impurities,"[2]; 40° C./60% RH, 1 month",<5.0% for all
same,Vancomycin,"[2]; 40° C./60% RH, 1 month","1,095 mcg/mg"
same,Vancomycin B,"[2]; 40° C./60% RH, 1 month",91.3%
same,Monodechlorovancomycin,"[2]; 40° C./60% RH, 2 months",1.1%
same,Other Impurities,"[2]; 40° C./60% RH, 2 months",<5.0% for all
same,Vancomycin,"[2]; 40° C./60% RH, 2 months","1,108 mcg/mg"
same,Vancomycin B,"[2]; 40° C./60% RH, 2 months",90.8%
same,Monodechlorovancomycin,"[2]; 40° C./60% RH, 3 months",1.0%
same,Other Impurities,"[2]; 40° C./60% RH, 3 months",<5.0% for all
same,Vancomycin,"[2]; 40° C./60% RH, 3 months","1,095 mcg/mg"
same,Vancomycin B,"[2]; 40° C./60% RH, 3 months",87.6%
same,"Monodechlorovancomycin, not exceeded",[2]; [4],≤ 4.7%
same,"other impurities, not exceeded",[2]; [4],≤ 5.0%
same,powder stability,"[2]; Ex. 4, accelerated and ambient (25±2° C./60±5% RH) conditions",remained stable through 3 months under accelerated stability conditions and 3 months under ambient
same,dissolution of powder in the solution component,[3],easily dissolves in the solution component
